Results reported in article PMC9065877, “Safety, tolerability and pharmacokinetics of the oligomer modulator anle138b with exposure levels sufficient for therapeutic efficacy in a murine Parkinson model: A randomised, double-blind, placebo-controlled phase 1a trial” (EBioMedicine, 2022).

Experiments:
[1] = Food effect study (FES), 150 mg single dose fed vs fasted, pharmacokinetics in healthy subjects, plasma; type: in vivo, human; conditions: for Cmax / AUC(0-t): po, 150 mg, FES 150 mg single oral dose, geometric mean (CV%); for AUC(0-t): read-out: AUC(0-24)
Protocol: (§1) This was a single-centre, double-blind, randomised, placebo-controlled single ascending dose (SAD) and multiple ascending dose (MAD) study of anle138b in doses of up to 300 mg per day in healthy subjects. In addition, the effect of food (FES) on the PK of anle138b in healthy subjects was examined using single doses of 150 mg. Participants were recruited from Quotient Sciences (Nottingham, UK) volunteer database.
This dose was administered either i) after a standard FDA-approved high-fat breakfast or ii) in the fasted state i.e., fasted from all food and drink (except water) for a minimum of 8 h prior to dosing. In total, one cohort of 12 subjects was randomised in a 1:1 ratio to 2 treatment sequences (fed→fasted) or (fasted→fed). A minimum washout of at least 5 half-lives of anle138b between each dose was assured.
(§2) Secondary outcome measures were the oral PK of single (SAD) and multiple (MAD) ascending doses of anle138b in the fasted state as well as the effect of co-administration with food on the PK of anle138b. To this end PK blood samples were taken at day 1 (and for MAD day 7) pre-dose and at 0·5, 1, 1·5, 2, 3, 4, 6, 8, 10, 12, 16 and 20 h post-dose, at days 2 to 6 pre-dose only (MAD) and 24, 30, 36 and 48 h post final dose. Analysis of anle138b in plasma was done at Aptuit, an Evotec company, in Verona, Italy. Time point of last quantifiable data was seen to increase with an increase in dose as follows: SAD: from the 50mg dose (subjects ranged between 8-24h) to the 300mg dose (subjects ranged between 36-48h). MAD: from the 100mg dose (subjects ranged between 8-36h) to the 300mg dose (subjects ranged between 20-48h). In FES, subjects ranged between 24-48h.
The study was exploratory and no formal sample size calculation was made. Based on experience from previous studies of similar design, eight subjects per cohort were enrolled for parts 1 (SAD) and 2 (MAD) and a total of twelve subjects for part 3 (FES). Populations and analysis sets were determined for safety and PK data after database lock using the criteria defined in the reporting and analysis plan. The safety population and safety analysis set for SAD and MAD were defined after database lock but prior to study unblinding. Statistical analysis and production of summary tables, figures and listings for all safety data (AEs, vital signs, ECGs and safety laboratory assessments) including changes from baseline as required in this study were performed using the statistical package SAS (v9·4). Additional statistics was provided for PK-related data including coefficient of variation (CV%), geometric mean, geometric CV%, and the number n of subjects that were included in the natural logarithmic transformation). In SAD and MAD, dose proportionality was assessed. Formal statistical analysis was performed on the log-transformed PK parameters AUC(0-last), AUC(0-inf), and Cmax for SAD (day 1), and AUC(0-tau) and Cmax for MAD (day 1 and day 7) to assess dose proportionality using the following power model: loge (AUC or Cmax) = µ + βx loge (dose). The estimate obtained for β is a measure of dose proportionality. The estimate of β together with its 90% confidence interval (CI) (βl, βu) was used to quantify the degree of non-proportionality. In MAD, formal statistical analysis was performed on the PK parameters AUC(0-tau) and Cmax to assess dose accumulation. Log-transformed AUC(0-tau) and Cmax was subjected to a mixed-effects model with treatment (dose level), day (day 1 or 7) and treatment-by-day interaction as fixed effects and subject as a random effect. The adjusted means obtained from the model, including differences for each comparison of interest and the associated 90% CIs, was back-transformed on the log scale to obtain adjusted geometric means, adjusted geometric mean ratios (GMRs) and 90% CIs of the ratio. The GMRs and 90% CIs were provided for each treatment and overall, i.e., day 7/day 1. […]

[2] = Single ascending dose (SAD) oral pharmacokinetics of anle138b in healthy subjects, plasma; type: in vivo, human; conditions: for AUC(0-t) / Cmax: human, plasma, fasted, geometric mean (CV%); for AUC(0-t): read-out: AUC(0-24)
Protocol: as §1
As a safety precaution, sentinel dosing was performed for all SAD and MAD cohorts. In SAD, subjects received a single dose of anle138b or placebo after fasting from all food and drink (except water) for a minimum of 8 h prior to dosing. The dosing in the four SAD-cohorts were 50 mg, 100 mg, 200 mg and 300 mg of free anle138b equivalent, respectively. In the MAD part, participants received anle138b or placebo once daily (QD) for 7 days after fasting from all food and drink (except water) for a minimum of 8 h prior to dosing. The dosing in the three MAD-cohorts was 100 mg, 200 mg and 300 mg of free anle138b equivalent, respectively. Post dosing mouth and hand checks were conducted to ensure the capsules were swallowed. In-study decisions regarding continuation and dose escalation were made by the safety advisory committee (SAC) comprising the principal investigator, the sponsor's medical monitor and a PK expert. For dose escalation to proceed, data needed to be available from a minimum of 6 subjects per cohort with completed per protocol safety and PK assessments up to 48 h after dosing to ensure at least 4 subjects had received active IMP. The decision to proceed to the next higher dose level was based on safety, tolerability and available PK data to 48 h post-dose. The following data were required: Adverse events, vital signs, safety laboratory, ECG, physical examinations, plasma concentrations of anle138b with interim PK parameter estimations (Tmax, Cmax, AUC(0-24), AUC(0-tau), AUC(0-last) and T½, where applicable). Data were provided to the SAC in accordance with Quotient Sciences’ standard operating procedure (SOP) on interim dose decision-making and dose escalation.
as §2
The study was exploratory and no formal sample size calculation was made. Based on experience from previous studies of similar design, eight subjects per cohort were enrolled for parts 1 (SAD) and 2 (MAD) and a total of twelve subjects for part 3 (FES). Populations and analysis sets were determined for safety and PK data after database lock using the criteria defined in the reporting and analysis plan. The safety population and safety analysis set for SAD and MAD were defined after database lock but prior to study unblinding. Statistical analysis and production of summary tables, figures and listings for all safety data (AEs, vital signs, ECGs and safety laboratory assessments) including changes from baseline as required in this study were performed using the statistical package SAS (v9·4). Additional statistics was provided for PK-related data including coefficient of variation (CV%), geometric mean, geometric CV%, and the number n of subjects that were included in the natural logarithmic transformation). […]

[3] = animal studies; cited from earlier work
[4] = human, plasma, fed (high-fat breakfast)
[5] = SAD Cohort B 100 mg single oral dose
[6] = SAD Cohort C 200 mg single oral dose
[7] = SAD Cohort D 300 mg single oral dose

Structure (SMILES): Brc1cccc(-c2cc(-c3ccc4c(c3)OCO4)n[nH]2)c1 [anle138b, 3-(1,3-benzodioxol-5-yl)-5-(3-bromophenyl)-1H-pyrazole]
- Time point of last quantifiable data (range of subjects) ([1]; FES 150 mg): 24 to 48 h
- Effect of food on Cmax ([1]; FES 150 mg, fed vs fasted): decreased by about half
- Food effect on AUC ([1]; FES 150 mg, fed vs fasted): clinically insignificant
- bioavailability ([1]; human, plasma, oral, FES 150 mg, 90% CI: 61%, 88%, read-out: Dose bioavailable in the fed state compared to the fasted state): ~74%
- Cmax ([1]; human, plasma, fasted): 442 ng/mL
- AUC(0-t) ([1]; human, plasma, fasted): 896 ng·h/mL
- Cmax [1, 4]: 196 ng/mL
- AUC(0-t) [1, 4]: 641 ng·h/mL
- Time point of last quantifiable data (range of subjects) ([2]; SAD 50mg dose): 8 to 24 h
- Time point of last quantifiable data (range of subjects) ([2]; SAD 300mg dose): 36 to 48 h
- AUC(0-t) ([2]; SAD Cohort A 50 mg single oral dose): 113 ng·h/mL
- Cmax [2, 5]: 156 ng/mL
- AUC(0-t) [2, 5]: 366 ng·h/mL
- Cmax [2, 6]: 458 ng/mL
- AUC(0-t) [2, 6]: 1090 ng·h/mL
- Cmax [2, 7]: 704 ng/mL
- AUC(0-t) [2, 7]: 1650 ng·h/mL
- Achievement of potential therapeutic exposure (based upon nonclinical in vivo models) ([2]; single 100 mg dose): already achieved after single 100 mg dose
- Levels of anle138b in the brain relative to plasma [3]: 5 fold
- Oral bioavailability (in words) [3]: high oral bioavailability
